# Reference: patent publication US8436049B2, “Uses of pentamidine and related compounds” (State of Oregon Acting By and Through the State Board of …, priority 2008, dated 2013)
# Entries after “also recorded” stand apart in the source; their conditions may differ.
# Columns and labels:
# [1] = system: cTNT splicing reporter in HeLa cells; assay: cTNT splicing reporter (exon 5 inclusion) in HeLa cells with or without CUG960 plasmid; assay type: cell-based; conditions: for cTNT exon 5 inclusion: absence of CUG repeats; for Rescue of cTNT exon 5 inclusion: cells expressing 960 CUG repeats
# Protocol: (§1) HeLa cells were grown in monolayers in DMEM with GlutaMAX™ (Gibco, Carlsbad, Calif.) and supplemented with 10% fetal bovine serum. Approximately 2.0 (±0.2)×10^5 cells were plated in 6 well plates and transfected 18-20 hours later at 70-90% confluency. 1 μg of plasmid was transfected into each well of cells, using 5 μL of […] (Invitrogen) according to the manufacturer's protocols. For co-transfection, 1 μg of total plasmid was transfected, at 500 ng of each construct. Test compounds were added 4 hours after transfection, when the media was changed. Cells were harvested 18-22 hours after transfection using TrypLE™ reagent (Gibco).
# (§2) Immediately following harvesting, RNA was isolated from the cell pellets using an RNeasy® kit (Qiagen, Valencia, Calif.). 500 ng of isolated RNA was DNased with RQI DNase (Promega, Madison, Wis.) according to manufacture's protocol. 100 ng of DNAsed RNA was reverse transcribed with Superscript® II (Invitrogen, Carlsbad, Calif.) and a cTNT-specific reverse primer according to manufacturer's protocols. 30 ng of the reverse transcription reaction was subjected to 22-25 rounds of PCR amplification using cTNT specific primers spiked with a forward primer 5′ end-labeled with [γ-^32P]ATP. Similar methods were used to reverse transcribe and amplify IR and PLEKHH2. […] The resulting PCR products were run on a 6% (19:1) polyacrylamide denaturing gel. The gel was subsequently autoradiographed and quantitation of the radioactive bands was performed using ImageQuant® software.
# (§3) The following primer pairs were used. For the cTNT minigene, the forward primer was […] (SEQ ID NO: 1), and the reverse primer was […] (SEQ ID NO: 2). For the IR minigene, the forward primer was […] (SEQ ID NO: 3), and the reverse primer was […] (SEQ ID NO: 4). The underlined sections are for cloning purposes. For the PLEKHH2 minigene, the forward primer was […] (SEQ ID NO: 5), and the reverse primer was […] (SEQ ID NO: 6).
# The ability of pentamidine to alter the splicing defects observed in a cell-based model for DM was tested. This was accomplished in a system using cells transformed with a plasmid expressing 960 CUG repeats where the expression of these CUG repeats causes splicing defects similar to those observed in DM cells and DM subjects (Savkur et al., Nature Genet. 29:40-47, 2001).
# [2] = system: IR splicing reporter in HeLa cells; assay: IR splicing reporter (exon 11 inclusion) in HeLa cells with or without CUG960 plasmid; assay type: cell-based; conditions: for Rescue of IR reporter mis-splicing: cells expressing 960 CUG repeats
# Protocol: as §1, §2, §3
# The ability of pentamidine to alter the splicing defects observed in a cell-based model for DM was tested. […]
# [3] = system: Serca1 pre-mRNA splicing, HSA^LR transgenic mice; assay: Serca1 exon 22 splicing in vastus muscle of HSA^LR mouse model of DM; assay type: in vivo; conditions: intraperitoneal, HSA^LR control 17±4%, normal 99.7±0.1%
# Protocol: Mouse handling and experimental procedures were conducted in accordance with the Association for Assessment and Accreditation of Laboratory Animal Care. HSA^LR transgenic mice in line 20b expressing human skeletal actin mRNA with ˜250 CUG repeats in the 3′ UTR were used (Mankodi et al., Science 289:1769-1772, 2000). Age- and gender-matched HSA^LR mice were injected intraperitoneally with pentamidine or saline (control). For a low-dose regimen, 25 mg/kg of pentamidine was administrated twice daily for 5 days. For a higher-dose regimen, 40 mg/kg of pentamidine was injected once daily for 7 days. Mice were sacrificed one day after the last injection, and vastus muscle was obtained for splicing analysis. […] PCR amplification was carried out for 22-24 cycles with the following primer pairs: Clc-1 forward, [sequence] (SEQ ID NO: 7), and reverse, [sequence] (SEQ ID NO: 8); Serca1 forward, [sequence] (SEQ ID NO: 9), and reverse, [sequence] (SEQ ID NO: 10). The PCR products were analyzed on agarose gels and scanned with a laser fluorimager (Typhoon, GE Healthcare, Piscataway, N.J.). Differences between the two groups were evaluated by Student's t-test.
structure (smiles),measurement,setting,value
N=C(N)c1ccc(OCCCCCOc2ccc(C(=N)N)cc2)cc1 [pentamidine],cTNT exon 5 inclusion,[1]; 25 μM,62%
same,Rescue of cTNT exon 5 inclusion,[1]; 25 μM,no effect
same,Rescue of cTNT exon 5 inclusion,[1]; 50 μM,partial rescue; also recorded: partially rescue the cTNT mis-splicing
same,cTNT exon 5 inclusion,[1]; 75 μM,30%
same,Rescue of cTNT exon 5 inclusion,[1]; 75 μM,full recovery
same,Concentration giving complete rescue of cTNT missplicing,[1]; presence of the CUG960 construct,75 µM
same,Rescue of IR reporter mis-splicing,[2]; 25 μM,partially rescued
same,Rescue of IR reporter mis-splicing,[2]; 50 μM,fully rescued; also recorded: fully rescue the IR mis-splicing
same,Effect on splicing of the IR reporter,[2]; cells lacking the CUG repeats,did not affect the splicing of the IR reporter
same,Serca1 exon 22 inclusion,[3]; 25 mg/kg twice daily for 5 days,22±2%
same,Serca1 exon 22 inclusion,[3]; 40 mg/kg once daily for 7 days,40±4%
